Laboratory results: patent US6888015B2, “Sphingolipid synthesis inhibitor” (Japan Science and Technology Agency, priority 2001, dated 2005)

Key:
[1] = system: de novo synthesis of SM in CHO cells; assay: Metabolic labeling of lipids with [14C]serine in CHO cells; format: cell-based, Chinese hamster; conditions: for inhibition of de novo SM synthesis (stereoisomers): [14C]serine labeling (FIG. 6B)
Description: (§1) CHO cells are cultured in Ham's F12 medium supplemented with 10% newborn bovine serum (NBS), penicillin G (100 unit/mL) and streptomycin sulfate (100 μg/mL) at the temperature of 33° C. and 5% CO2 atmosphere. In the case of HeLa cells, Dulbecco's minimum essential medium is used as a base medium instead of Ham's F12 medium.
Further, Nutridoma medium (Ham's F12 medium containing 1% Nutridoma-SP, product of Roche Molecular Biochemicals, and 25 μg/mL of gentamicin) is used as a serum-free medium. In the case when the medium is supplemented by DMSO or drugs dissolved in DMSO, the concentration of DMSO in culture medium is adjusted to be 0.01%.
CHO cells are seeded at the density of 1.0×10^6 cell in 5 mL of F12 medium containing 10% NBS, by per 60-mm dish, and cultured at 33° C. overnight. Then, the medium is changed to 1.5 mL of Nutridoma medium if necessary, various drugs are added and incubated at 4° C. for 15 minutes. Then, after addition of [^14C] serine (0.75 μCi) or [^14 C] choline (1.0 μCi) to the medium, cells were incubated at 33° C. for various periods of time.
Cells are washed twice with 2 mL of cold phosphate-buffered saline (PBS), and lysed with 900 μL of 0.1% sodium dodecyl sulfate (SDS). Then, 800 μL and 20 μL of lysate are used for lipid extraction and determination of protein concentration, respectively.
For the analysis of lipids labeled with [C^14C] serine, lipids were separated by TLC with a solvent consisting of methylacetate/n-propanol/chloroform/methanol/0.25%KCl (25:25:25:10:9, volume ratio) as a developing solvent.
Radioactive lipid separated on the TLC plates are detected with image analyzer depicted above. After the collection of gels from TLC plates by scraping, the radioactivity of each lipid is determined by liquid scintillation counting and normalized to the protein concentration of cells.

[2] = system: synthesis of SM in HeLa cells; assay: De novo synthesis of SM in HeLa cells; format: cell-based; conditions: FIG. 6D
Description: as §1

[3] = system: protein trafficking from the ER to the Golgi apparatus; assay: Glycoprotein (PLAP-HA) transport from the ER to the Golgi apparatus; format: cell-based, Chinese hamster; conditions: 2.5 μM; CHO-K1 transformant expressing PLAP-HA (FIG. 7)

CCCCCCCCCCCCCCCC(=O)NC(CO)CC(O)c1ccccc1 (stereo not drawn) [HPA-16]
formation of [14C]SM ([1]; 2.5 μM drug, [14C]serine labeling, CHO cells (FIG. 1B)): less than that of HPA-12

CCCCCCCCCCCC(=O)N[C@H](CO)C[C@H](O)c1ccccc1 [(1S, 3S)-HPA-12]
inhibition of de novo SM synthesis (stereoisomers) [1]: moderately

CCCCCCCCCCCC(=O)N[C@@H](CO)C[C@@H](O)c1ccccc1 [(1R, 3R)-HPA-12]
inhibitory activity on the Cer-to-SM conversion among four stereoisomers ([1]; FIG. 6B, 6C): strongest inhibitory activity
inhibition of de novo SM synthesis (stereoisomers) [1]: strongly
synthesis of SM in HeLa cells [2]: inhibits
maturation rate of newly synthesized PLAP-HA to an EndoH-resistant form [3]: not affected
